Several values for one entry are separate records, joined by “and”; a condition that tells them apart may be missing. Identical values can stand only once.
Tested on: BDF1 mice, Adenocarcinoma 755 s.c., tumor weight T/C
Test: NCI In Vivo Anticancer Drug Screen. Data for tumor model Adenocarcinoma 755 (subcutaneous) in B6D2F1 (BDF1) mice
Settings: endpoint: mean tumor weight, higher = larger tumour
Summary of the method: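 Transplantable tumor implanted; mice dosed with compound or vehicle; survival or tumor size recorded; ratio of treated to vehicle control reported.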

**Q.** With `c1ccc2c3c(ccc2c1)Sc1ccc2ccccc2c1N3` as the compound, how does the T/C (dose: 27.5 mg/kg/injection, schedule: Q01DX011 (ip), vehicle: methylcellulose (MC)) read?
**A.** Its T/C is 73 % of control.

**Q.** And the T/C (dose: 27.5 mg/kg/injection, schedule: Q01DX011 (ip), vehicle: other)?
**A.** Its T/C is 108 % of control.

**Q.** And the T/C (dose: 55.0 mg/kg/injection, schedule: Q01DX011 (ip), vehicle: methylcellulose (MC))?
**A.** The T/C was 76 % of control.

**Q.** And the T/C (dose: 55.0 mg/kg/injection, schedule: Q01DX011 (ip), vehicle: other)?
**A.** The T/C was 115 % of control.

**Q.** What about the T/C (dose: 110.0 mg/kg/injection, schedule: Q01DX011 (ip), vehicle: methylcellulose (MC)) of the same compound?
**A.** The T/C was 58 % of control.

**Q.** What about the T/C (dose: 440.0 mg/kg/injection, schedule: Q01DX011 (ip), vehicle: other) of the same compound?
**A.** The T/C was 64 % of control.

**Q.** How did the T/C (dose: 2.5 mg/kg/injection, schedule: Q01DX011 (sc), vehicle: steriod suspending solution) turn out when `C[C@H]1C[C@@H]2[C@H]([C@@H](O)C[C@@]3(C)[C@H]2CC[C@]3(O)C(=O)CF)[C@@]2(C)C=CC(=O)C=C12` was run?
**A.** The T/C was 82 % of control.

**Q.** And the T/C (dose: 5.0 mg/kg/injection, schedule: Q01DX011 (sc), vehicle: steriod suspending solution)?
**A.** Its T/C is 57 % of control.

**Q.** And the T/C (dose: 10.0 mg/kg/injection, schedule: Q01DX011 (sc), vehicle: steriod suspending solution)?
**A.** Its T/C is 48 % of control.

**Q.** What about the T/C (dose: 21.0 mg/kg/injection, schedule: Q01DX011 (sc), vehicle: steriod suspending solution) of the same compound?
**A.** Its T/C is 64 % of control.

**Q.** What about the T/C (dose: 25.0 mg/kg/injection, schedule: Q01DX011 (sc), vehicle: steriod suspending solution) of the same compound?
**A.** The T/C was 91 % of control.

**Q.** What about the T/C (dose: 42.0 mg/kg/injection, schedule: Q01DX011 (sc), vehicle: saline) of the same compound?
**A.** The T/C was 39 % of control.

**Q.** What about the T/C (dose: 42.0 mg/kg/injection, schedule: Q01DX011 (sc), vehicle: steriod suspending solution) of the same compound?
**A.** The T/C was 12 % of control and 25 % of control (2×).

**Q.** What about the T/C (dose: 50.0 mg/kg/injection, schedule: Q01DX011 (sc), vehicle: steriod suspending solution) of the same compound?
**A.** The T/C was 59 % of control.

**Q.** What about the T/C (dose: 84.0 mg/kg/injection, schedule: Q01DX011 (sc), vehicle: saline) of the same compound?
**A.** Its T/C is 61 % of control.

**Q.** And the T/C (dose: 84.0 mg/kg/injection, schedule: Q01DX011 (sc), vehicle: steriod suspending solution)?
**A.** The T/C was 9 % of control.

**Q.** And the T/C (dose: 100.0 mg/kg/injection, schedule: Q01DX011 (sc), vehicle: steriod suspending solution)?
**A.** Its T/C is 55 % of control.

**Q.** What about the T/C (dose: 168.0 mg/kg/injection, schedule: Q01DX011 (sc), vehicle: saline) of the same compound?
**A.** Its T/C is 19 % of control.

**Q.** And the T/C (dose: 168.0 mg/kg/injection, schedule: Q01DX011 (sc), vehicle: steriod suspending solution)?
**A.** Its T/C is 1 % of control.

**Q.** What about the T/C (dose: 200.0 mg/kg/injection, schedule: Q01DX011 (sc), vehicle: steriod suspending solution) of the same compound?
**A.** Its T/C is 57 % of control.

**Q.** And the T/C (dose: 336.0 mg/kg/injection, schedule: Q01DX011 (sc), vehicle: saline)?
**A.** Its T/C is 19 % of control.

**Q.** What about the T/C (dose: 400.0 mg/kg/injection, schedule: Q01DX011 (sc), vehicle: steriod suspending solution) of the same compound?
**A.** Its T/C is 23 % of control.

**Q.** What about the T/C (dose: 500.0 mg/kg/injection, schedule: Q01DX011 (sc), vehicle: steriod suspending solution) of the same compound?
**A.** Its T/C is 39 % of control.

**Q.** What about the T/C (dose: 600.0 mg/kg/injection, schedule: Q01DX011 (sc), vehicle: steriod suspending solution) of the same compound?
**A.** The T/C was 37 % of control.

**Q.** And the T/C (dose: 700.0 mg/kg/injection, schedule: Q01DX011 (sc), vehicle: steriod suspending solution)?
**A.** The T/C was 17 % of control.

**Q.** For `Cn1c(=O)c2c(ncn2CCCO)n(C)c1=O`, which T/C (dose: 75.0 mg/kg/injection, schedule: Q01DX011 (ip), vehicle: carboxymethylcellulose (CMC)) is on record?
**A.** Its T/C is 61 % of control.

**Q.** And the T/C (dose: 225.0 mg/kg/injection, schedule: Q01DX011 (ip), vehicle: carboxymethylcellulose (CMC))?
**A.** Its T/C is 65 % of control.

**Q.** `CCC1CN1P(=S)(N1CC1CC)N1CC1CC` (configuration not stated) was tested. Which T/C (dose: 28.0 mg/kg/injection, schedule: Q01DX011 (ip), vehicle: saline) did it give?
**A.** Its T/C is 104 % of control.

**Q.** What about the T/C (dose: 56.0 mg/kg/injection, schedule: Q01DX011 (ip), vehicle: saline) of the same compound?
**A.** The T/C was 28 % of control.

**Q.** And the T/C (dose: 113.0 mg/kg/injection, schedule: Q01DX011 (ip), vehicle: saline)?
**A.** Its T/C is 8 % of control.

**Q.** Which results are given for `Cn1c(=O)c2[nH]c(N/N=C/c3ccc(Br)cc3)nc2n(C)c1=O`?
**A.** T/C (dose: 30.0 mg/kg/injection, schedule: Q01DX011 (ip), vehicle: carboxymethylcellulose (CMC)): 109 % of control; T/C (dose: 60.0 mg/kg/injection, schedule: Q01DX011 (ip), vehicle: carboxymethylcellulose (CMC)): 106 % of control; T/C (dose: 120.0 mg/kg/injection, schedule: Q01DX011 (ip), vehicle: carboxymethylcellulose (CMC)): 92 % of control and 116 % of control; T/C (dose: 240.0 mg/kg/injection, schedule: Q01DX011 (ip), vehicle: carboxymethylcellulose (CMC)): 104 % of control and 88 % of control; T/C (dose: 480.0 mg/kg/injection, schedule: Q01DX011 (ip), vehicle: carboxymethylcellulose (CMC)): 97 % of control

**Q.** Which results are given for `CC(=O)OCC1CCCC(n2cnc3c(Cl)ncnc32)O1` (configuration not stated)?
**A.** T/C (dose: 62.5 mg/kg/injection, schedule: Q01DX011 (ip), vehicle: methylcellulose (MC)): 74 % of control; T/C (dose: 125.0 mg/kg/injection, schedule: Q01DX011 (ip), vehicle: methylcellulose (MC)): 52 % of control; T/C (dose: 250.0 mg/kg/injection, schedule: Q01DX011 (ip), vehicle: methylcellulose (MC)): 26 % of control

**Q.** How did the T/C (dose: 8.0 mg/kg/injection, schedule: Q01DX011 (ip), vehicle: carboxymethylcellulose (CMC)) turn out when `CCOC(=O)c1ccc(N=NN(C)C)cc1` was run?
**A.** The T/C was 92 % of control.

**Q.** And the T/C (dose: 16.0 mg/kg/injection, schedule: Q01DX011 (ip), vehicle: carboxymethylcellulose (CMC))?
**A.** Its T/C is 94 % of control.

**Q.** And the T/C (dose: 31.0 mg/kg/injection, schedule: Q01DX011 (ip), vehicle: carboxymethylcellulose (CMC))?
**A.** Its T/C is 113 % of control.

**Q.** What about the T/C (dose: 62.0 mg/kg/injection, schedule: Q01DX011 (ip), vehicle: carboxymethylcellulose (CMC)) of the same compound?
**A.** The T/C was 95 % of control.
